Measured values taken from patent US4705805A, “Antithrombotic agent” (priority 1978, dated 1987).
≈ marks a conversion by molar mass, not a printed value. Read-outs that look alike come from different tables or passages of the source.

Experiments:
[1] = acute toxicity, Behrens-Karber's method; format: in vivo; conditions: in vivo; mouse, oral
Protocol: (§1) In this example, the acute toxicity of compounds of the invention is determined by Behrens-Karber's method using, 5 male dd-strain for each group weighing 20±1 g. A 0.3% CMC suspension of the test compound (concentration of the test compound: 100 mg/ml) is then orally administered to each mouse.

[2] = test system: rabbit blood platelets (platelet rich plasma), ADP-induced aggregation; assay: inhibition of platelet aggregation in rabbit platelet rich plasma (in vitro), induced by ADP; format: cell-based; conditions: Oryctolagus cuniculus, Platelet; for inhibition at 3 µg/mL: 3 μg/ml; for inhibition at 10 µg/mL: 10 μg/ml
Protocol: (§2) In this example, the inhibition of platelet aggregation in rabbit platelet rich plasma (in vitro) is tested.
(§3) In this test, 9 vol. of blood is sampled from the carotid artery of rabbits (2 to 2.5 Kg) and placed in a silicon-coated flask containing 1 vol. of 3.8% sodium citrate. The thus obtained blood is centrifuged at 1,000 rpm for 15 minutes to obtain platelet rich plasma (referred to as "PRP" hereinafter). The aggregation of blood platelets is observed using an aggregometer (made by Bryston Co.) and the degree of aggregation after the addition of aggregation promoting substances is measured by nephelometry, i.e., through increase in light transmission.
(§4) The PRP (0.9 ml) is placed in a silicon-coated cuvett of the aggregometer. Then, 0.05 ml of physiological saline solution containing various concentrations of test reagents or control reagents is added and the mixture is allowed to stand for one minute. Compounds promoting aggregation are then added and the absorbancy of the solution is measured and the percent inhibition of aggregation is calculated according to the following equation: [formula] C: Transmittancy showing the maximum percent aggregation by physiological saline solution
(§5) D: Transmittancy showing the maximum percent aggregation by sample
(§6) Test for the inhibition of platelet aggregation induced by ADP, collagen and thrombin.

[3] = test system: rabbit blood platelets (platelet rich plasma), collagen-induced aggregation; assay: inhibition of platelet aggregation in rabbit platelet rich plasma (in vitro), induced by collagen; format: cell-based; conditions: Oryctolagus cuniculus, Platelet; for inhibition at 1 µg/mL: 1 μg/ml; for inhibition at 3 µg/mL: 3 μg/ml; for inhibition at 10 µg/mL: 10 μg/ml
Protocol: as §2, §3, §4, §5, §6

[4] = test system: human platelet rich plasma, collagen-induced aggregation; assay: inhibition of platelet aggregation in human platelet rich plasma, induced by collagen; format: cell-based; conditions: human PRP, read-out: percentage inhibition, collagen; for inhibition at 10 µg/mL: 10 μg/ml; for inhibition at 30 µg/mL: 30 μg/ml; for inhibition at 100 µg/mL: 100 μg/ml
Protocol: as §3, §4, §5
(§7) In this example, the same procedures are repeated as in Example 10 except that human platelet rich plasma is used in place of rabbit platelet rich plasma.

[5] = test system: human platelet rich plasma, ADP-induced aggregation; assay: inhibition of platelet aggregation in human platelet rich plasma, induced by ADP; format: cell-based; conditions: human PRP, read-out: percentage inhibition, ADP; for inhibition at 30 µg/mL: 30 μg/ml; for inhibition at 100 µg/mL: 100 μg/ml; for inhibition at 10 µg/mL: 10 μg/ml
Protocol: as §3, §4, §5, §7

[6] = test system: mice, death by ADP injection; assay: prevention of death of mice by ADP addition (in vivo), oral administration; conditions: for Mortality / Score (mortality): oral, 100 mg/Kg, ADP i.v. after one hour
Protocol: In this example, prevention of death of mice by ADP addition (in vivo) is tested. It is shown that intravenous administration of a great amount of ADP to mice causes aggregated blood platelets to be captured in the pulmonary capillaries so that the mice die of respiratory distress.
The test is carried out according to Roba's method. [Eur. J. Pharmacol. 37, 265-274 (1976)]. Specifically, CMC solution (0.3%) and CMC suspension containing the test compound and control compounds are orally administered to mice in a ratio of 0.1 ml/10 g (body weight). After one hour, an aqueous solution of ADP (60 mg/ml) is injected into the tail vein in a volume of 0.1 ml/10 g (body weight) every 10 seconds and the mortality is calculated.

mouse (male dd-strain) = assay: acute toxicity, Behrens-Karber's method; format: in vivo; conditions: oral
Protocol: as §1

[7] = test system: mice (male dd-strain), death by sodium arachidonate; assay: prevention of death of mice by sodium arachidonate; format: in vivo; conditions: sodium arachidonate 50 mg/Kg i.v. two hours thereafter
Protocol: When a large amount of arachidonic acid is intravenously administrated to a mouse, blood platelet aggregates are formed and caught by the microvasculature system of the lung. As a result, the mouse expires due to dyspnea.
To examine the effect of a medicine in vivo, the medicine is orally administered to test animals and thereafter arachidonic acid is administered.
In this example, the test was carried out according to the method by Uzunova A. D. et al. [Prostaglandins 13, p. 995 (1977)] Specifically, a CMC suspension consisting of 0.3% CMC solution and a medicine (test compound and reference medicine) was orally administered to mice (male dd-strain, 22-24 g). Two hours thereafter, 50 mg/Kg of sodium arachidonate was intravenously administered to the mice.

[8] = rabbit PRP, ADP 10^-5 M, read-out: percentage of inhibition, ADP
[9] = rabbit PRP, ADP 10^-5 M, 30 μg/ml, read-out: percentage of inhibition, ADP
[10] = rabbit PRP, read-out: percentage of inhibition, collagen
[11] = rabbit PRP, 30 μg/ml, read-out: percentage of inhibition, collagen
[12] = rabbit PRP, ADP 10^-5 M, 100 μg/ml, read-out: percentage of inhibition, ADP
[13] = rabbit PRP, 100 μg/ml, read-out: percentage of inhibition, collagen
[14] = read-out: percentage of inhibition, ADP
[15] = read-out: percentage of inhibition, collagen

| SMILES | LD50 [1] [mg/kg] | inhibition at 3 µg/mL [2, 8] [%] | inhibition at 10 µg/mL [2, 8] [%] | inhibition at 30 µg/mL [2, 9] [%] | inhibition at 3 µg/mL [3, 10] [%] | inhibition at 10 µg/mL [3, 10] [%] | inhibition at 30 µg/mL [3, 11] [%] | inhibition at 10 µg/mL [4] [%] | inhibition at 30 µg/mL [4] [%] | inhibition at 100 µg/mL [4] [%] | inhibition at 30 µg/mL [5] [%] | inhibition at 100 µg/mL [5] [%] | inhibition at 100 µg/mL [2, 12] [%] | inhibition at 100 µg/mL [3, 13] [%] | also measured |
| --- | --- | --- | --- | --- | --- | --- | --- | --- | --- | --- | --- | --- | --- | --- | --- |
| O=C(c1ccccc1SSc1ccccc1C(=O)N1CCOCC1)N1CCOCC1 [Compound XXVII, 2,2'-dithiobis(benzmorpholide)] | ≥ 1000 | 40 | 60 | 100 | 59 | 100 | 100 | 0 | 35 | 100 | 5 | 45 | – | – | inhibition at 1 µg/mL [3, 10]: 40% |
| O=C(NCCO)c1ccccc1SSc1ccccc1C(=O)NCCO [Compound III, 2,2'-dithiobis(N-2-hydroxyethylbenzamide)] | ≥ 2000 | 33.4 | 69.1 | 100 | 88.5 | 100 | – | 20 | 66 | 100 | 43 | 98 | – | – | Mortality [6]: 20%; Score (mortality) [6]: 2/10; mortality rate (mouse (male dd-strain); 1 g/Kg): 0/5; mortality rate (mouse (male dd-strain); 2 g/Kg): 1/5; mortality rate (mouse (male dd-strain); 3 g/Kg): 4/5; mortality rate (mouse (male dd-strain); 4 g/Kg): 4/5; IC50 ([2]; rabbit PRP, ADP 10^-5 M): 4.8 µg/mL (≈ 12.2 µM); inhibition at 1 µg/mL ([2]; rabbit PRP, ADP 10^-5 M, 1 μg/ml, read-out: percentage of inhibition, ADP): 21.3%; IC50 ([3]; rabbit PRP): 1.1 µg/mL (≈ 2.8 µM); inhibition at 0.3 µg/mL ([3]; rabbit PRP, 0.3 μg/ml, read-out: percentage of inhibition, collagen): 11%; inhibition at 1 µg/mL [3, 10]: 39.2%; Mortality ([7]; oral 50 mg/Kg): 70%; Score (mortality) ([7]; oral 50 mg/Kg): 7/10; Mortality ([7]; oral 100 mg/Kg): 40%; Score (mortality) ([7]; oral 100 mg/Kg): 4/20; inhibition at 10 µg/mL [5]: 15% |
| CCCCCCCCCCCC(=O)OCCNC(=O)c1ccccc1SSc1ccccc1C(=O)NCCOC(=O)CCCCCCCCCCC [Compound XIX, 2,2'-dithiobis(N-2-dodecanoyloxyethylbenzamide)] | ≥ 1000 | – | – | 12 | – | – | 54 | – | 16 | 46 | 5 | 35 | 72 | 100 | – |
| O=C(NCCCN1CCOCC1)c1ccccc1SSc1ccccc1C(=O)NCCCN1CCOCC1 [Compound XL, 2,2'-dithiobis(N-3-morpholinopropylbenzamide)] | ≥ 1000 | 26 | 69 | 100 | 21 | 98 | 100 | 40 | 100 | 100 | 85 | 100 | – | 100 | inhibition at 10 µg/mL [5]: 65% |
| CCOC(CN1CCN(C(=O)c2ccccc2SSc2ccccc2C(=O)N2CCN(CC(OCC)c3ccccc3)CC2)CC1)c1ccccc1 (stereo not drawn) [Compound XXIX, 2,2'-dithiobis[N'-(2-phenyl-2-ethyloxyethyl)benzpiperazide]] | ≥ 1000 | – | 32 | 43 | 0 | 55 | 100 | – | – | – | – | – | – | – | – |
| O=C(c1ccccc1SSc1ccccc1C(=O)N1CCN(CC=Cc2ccccc2)CC1)N1CCN(CC=Cc2ccccc2)CC1 [Compound XXX, 2,2'-dithiobis[N'-(3-phenyl-propene-1-yl)benzpiperazide]] | ≥ 1000 | – | – | 17 | – | – | 40 | – | – | – | – | – | – | – | – |
| COCCNC(=O)c1ccccc1SSc1ccccc1C(=O)NCCOC [Compound XVIII, 2,2'-dithiobis(N-2-methyloxyethylbenzamide)] | ≥ 1000 | – | – | – | – | 40 | 100 | 10 | 45 | 100 | 20 | 65 | 75 | 100 | – |
| O=C(NCCO)c1cc(Cl)ccc1SSc1ccc(Cl)cc1C(=O)NCCO [Compound XXXI, 2,2'-dithiobis(5-chloro-N-2-hydroxyethyl)benzamide] | ≥ 1000 | 0 | 43 | 80 | 100 | 100 | 100 | 12 | 60 | 100 | 50 | 88 | 100 | 100 | inhibition at 1 µg/mL [3, 10]: 26%; inhibition at 10 µg/mL [5]: 10% |
| O=C(NCCNCCO)c1ccccc1SSc1ccccc1C(=O)NCCNCCO [Compound XXV, 2,2'-dithiobis[N-2-(2-hydroxyethylamino)-ethylbenzamide]] | ≥ 1000 | – | – | 10 | – | – | 42 | – | 4 | 25 | – | 10 | – | – | – |
| O=C(NCc1ccccc1)c1ccccc1SSc1ccccc1C(=O)NCc1ccccc1 [Compound II, 2,2'-dithiobis(N-benzylbenzamide)] | ≥ 300 | – | – | – | – | – | – | – | – | – | – | – | 2.7 | 1.2 | – |
| O=C(Nc1ccccc1[N+](=O)[O-])c1ccccc1SSc1ccccc1C(=O)Nc1ccccc1[N+](=O)[O-] [Compound XII, 2,2'-dithiobis(N-o-nitrophenylbenzamide)] | ≥ 1000 | – | – | – | – | – | – | – | – | – | – | – | – | – | inhibition at 30 µg/mL [2, 14]: 20%; inhibition at 100 µg/mL [2, 14]: 50%; inhibition at 30 µg/mL [3, 15]: 45%; inhibition at 100 µg/mL [3, 15]: 90% |
| O=C(Nc1ccccc1Cl)c1ccccc1SSc1ccccc1C(=O)Nc1ccccc1Cl [Compound X, 2,2'-dithiobis(N-o-chlorophenylbenzamide)] | ≥ 1000 | – | 0 | 24 | – | 4 | 63 | – | – | – | – | – | 96 | 100 | – |
| COc1ccc(Cc2nccc3cc(OC)c(OC)cc23)cc1OC [papaverine, reference compound] | – | – | – | – | – | – | – | – | – | – | – | – | – | – | effect in reducing mortality (ADP) ([6]; in words, oral or intravenous administration, Table 3): ineffective; Mortality [6]: 60%; Score (mortality) [6]: 6/10; inhibition at 30 µg/mL [2, 14]: 14%; inhibition at 100 µg/mL [2, 14]: 99%; inhibition at 30 µg/mL [3, 15]: 34%; inhibition at 100 µg/mL [3, 15]: 100% |
